From patent US11884661B2, “3-substituted propionic acids as αV integrin inhibitors” (BRISTOL-MYERS SQUIBB COMPANY, priority 2016, dated 2024)

Each compound was assayed against T1, human αVβ6 (Homo sapiens, UniProt P06756+P18564) (assay: human αVβ6 HTRF binding assay). Conditions: recombinant human αVβ6 integrin, FITC-conjugated fibronectin.
T1 construct: purchased R & D systems 3817-AV
T1 sequence (P06756 31-992 limits assumed): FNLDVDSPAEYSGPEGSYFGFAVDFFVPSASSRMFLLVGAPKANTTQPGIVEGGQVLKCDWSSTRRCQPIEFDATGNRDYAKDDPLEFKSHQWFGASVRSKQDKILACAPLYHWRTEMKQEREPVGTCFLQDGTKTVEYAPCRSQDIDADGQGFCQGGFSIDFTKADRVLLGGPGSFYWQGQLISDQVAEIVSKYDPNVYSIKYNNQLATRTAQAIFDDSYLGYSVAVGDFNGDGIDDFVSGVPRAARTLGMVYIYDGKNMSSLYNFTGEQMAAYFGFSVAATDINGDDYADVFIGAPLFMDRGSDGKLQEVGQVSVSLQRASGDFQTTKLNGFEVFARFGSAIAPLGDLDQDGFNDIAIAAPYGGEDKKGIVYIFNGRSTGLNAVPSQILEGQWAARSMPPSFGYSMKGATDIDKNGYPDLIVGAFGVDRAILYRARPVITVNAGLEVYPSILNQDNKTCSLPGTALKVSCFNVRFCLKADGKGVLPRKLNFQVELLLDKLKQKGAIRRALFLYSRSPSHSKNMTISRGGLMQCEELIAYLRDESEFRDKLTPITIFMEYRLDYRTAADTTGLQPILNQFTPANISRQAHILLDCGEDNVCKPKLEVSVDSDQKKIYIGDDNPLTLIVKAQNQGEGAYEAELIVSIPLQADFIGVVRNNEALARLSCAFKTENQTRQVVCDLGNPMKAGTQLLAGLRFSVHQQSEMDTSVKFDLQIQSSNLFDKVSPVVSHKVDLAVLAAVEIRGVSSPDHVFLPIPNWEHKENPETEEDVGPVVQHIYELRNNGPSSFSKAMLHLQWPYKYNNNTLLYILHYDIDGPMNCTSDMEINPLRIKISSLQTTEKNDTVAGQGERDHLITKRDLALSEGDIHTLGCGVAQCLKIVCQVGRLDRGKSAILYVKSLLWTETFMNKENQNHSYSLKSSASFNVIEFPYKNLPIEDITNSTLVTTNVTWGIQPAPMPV
T1 sequence (P18564 22-707 limits assumed): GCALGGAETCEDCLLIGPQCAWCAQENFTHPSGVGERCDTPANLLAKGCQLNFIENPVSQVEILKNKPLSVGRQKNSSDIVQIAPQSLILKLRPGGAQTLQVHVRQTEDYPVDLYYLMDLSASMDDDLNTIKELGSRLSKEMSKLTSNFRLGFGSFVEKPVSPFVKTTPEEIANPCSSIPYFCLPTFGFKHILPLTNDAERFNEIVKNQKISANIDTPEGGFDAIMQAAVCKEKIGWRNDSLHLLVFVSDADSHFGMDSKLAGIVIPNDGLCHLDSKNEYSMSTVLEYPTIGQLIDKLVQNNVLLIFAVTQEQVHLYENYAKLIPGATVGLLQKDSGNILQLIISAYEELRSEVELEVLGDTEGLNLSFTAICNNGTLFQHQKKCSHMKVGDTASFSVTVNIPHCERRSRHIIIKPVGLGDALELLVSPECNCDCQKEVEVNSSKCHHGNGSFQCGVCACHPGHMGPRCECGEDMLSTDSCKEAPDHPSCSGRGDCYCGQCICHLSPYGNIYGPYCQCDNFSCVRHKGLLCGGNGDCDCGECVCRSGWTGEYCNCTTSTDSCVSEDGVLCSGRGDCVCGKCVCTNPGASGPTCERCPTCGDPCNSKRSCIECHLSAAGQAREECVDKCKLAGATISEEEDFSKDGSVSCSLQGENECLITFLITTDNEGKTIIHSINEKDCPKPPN
Outline: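 Biotinylated recombinant αVβ6 (1.25 nM final) incubated with FITC-fibronectin (5 nM) 1 h at RT, then streptavidin-terbium (0.625 nM) added and incubated overnight at RT in the dark before HTRF read. Buffer: 20 mM Tris pH 7.4, 1 mM MgCl2, 1 mM MnCl2, 0.01% Tween 20, 0.01% BSA.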
`COc1ccc(C(CC(=O)O)c2ncc(CCCCc3ccc4c(n3)NCCC4)n2C)cn1` (single isomer, unassigned) [Example 164, 3-(6-methoxypyridin-3-yl)-3-(1-methyl-5-(4-(5,6,7,8-tetrahydro-1,8-naphthyridin-2-yl)butyl)-1H-imidazol-2-yl)propanoic acid] gave an IC50 of 0.46 µM.
With `COc1ccc(C(CC(=O)O)c2ncc(CCCCc3ccc4c(n3)NCCC4)n2C)cn1` (single isomer, unassigned) [Example 165, 3-(6-methoxypyridin-3-yl)-3-(1-methyl-5-(4-(5,6,7,8-tetrahydro-1,8-naphthyridin-2-yl)butyl)-1H-imidazol-2-yl)propanoic acid] the IC50 was 0.027 µM.
Work on `COc1ccc(C(CC(=O)O)c2ncc(CCCCc3ccc4c(n3)NCCC4)n2C)cc1F` (single isomer, unassigned) [Example 166, 3-(3-fluoro-4-methoxyphenyl)-3-(1-methyl-5-(4-(5,6,7,8-tetrahydro-1,8-naphthyridin-2-yl)butyl)-1H-imidazol-2-yl)propanoic acid] yielded an IC50 of 0.28 µM.
`COc1ccc(C(CC(=O)O)c2ncc(CCCCc3ccc4c(n3)NCCC4)n2C)cc1F` (single isomer, unassigned) [Example 167, 3-(3-fluoro-4-methoxyphenyl)-3-(1-methyl-5-(4-(5,6,7,8-tetrahydro-1,8-naphthyridin-2-yl)butyl)-1H-imidazol-2-yl)propanoic acid] gave an IC50 of 0.027 µM.
For `COc1ccc(C(CC(=O)O)c2nc(CCCCc3ccc4c(n3)NCCC4)cn2C)cc1F` (single isomer, unassigned) [Example 168, 3-(3-fluoro-4-methoxyphenyl)-3-(1-methyl-4-(4-(5,6,7,8-tetrahydro-1,8-naphthyridin-2-yl)butyl)-1H-imidazol-2-yl)propanoic acid], the IC50 was 0.091 µM.
`COc1ccc(C(CC(=O)O)c2nc(CCCCc3ccc4c(n3)NCCC4)cn2C)cc1F` (single isomer, unassigned) [Example 169, 3-(3-fluoro-4-methoxyphenyl)-3-(1-methyl-4-(4-(5,6,7,8-tetrahydro-1,8-naphthyridin-2-yl)butyl)-1H-imidazol-2-yl)propanoic acid] was tested, and the IC50 was 0.067 µM.
`COc1ccc(C(CC(=O)O)n2ncc(CCCc3ccc4c(n3)NCCC4)n2)cn1` (single isomer, unassigned) [Example 170, 3-(6-methoxypyridin-3-yl)-3-(4-(3-(5,6,7,8-tetrahydro-1,8-naphthyridin-2-yl)propyl)-2H-1,2,3-triazol-2-yl)propanoic acid] gave an IC50 of 0.62 µM.
`COc1ccc(C(CC(=O)O)n2ncc(CCCc3ccc4c(n3)NCCC4)n2)cn1` (single isomer, unassigned) [Example 171, 3-(6-methoxypyridin-3-yl)-3-(4-(3-(5,6,7,8-tetrahydro-1,8-naphthyridin-2-yl)propyl)-2H-1,2,3-triazol-2-yl)propanoic acid] gave an IC50 of 0.027 µM.
In the case of `COc1ccc(C(CC(=O)O)n2ncc(CCCc3ccc4c(n3)NCCC4)n2)cc1F` (single isomer, unassigned) [Example 172, 3-(3-fluoro-4-methoxyphenyl)-3-(4-(3-(5,6,7,8-tetrahydro-1,8-naphthyridin-2-yl)propyl)-2H-1,2,3-triazol-2-yl)propanoic acid], the IC50 is reported as 0.053 µM.
`COc1ccc(C(CC(=O)O)n2ncc(CCCc3ccc4c(n3)NCCC4)n2)cc1F` (single isomer, unassigned) [Example 173, 3-(3-fluoro-4-methoxyphenyl)-3-(4-(3-(5,6,7,8-tetrahydro-1,8-naphthyridin-2-yl)propyl)-2H-1,2,3-triazol-2-yl)propanoic acid] showed an IC50 of 0.003 µM.
Work on `O=C(O)CC(c1cnc2ccccc2c1)n1ncc(CCCc2ccc3c(n2)NCCC3)n1` (single isomer, unassigned) [Example 174, 3-(quinolin-3-yl)-3-(4-(3-(5,6,7,8-tetrahydro-1,8-naphthyridin-2-yl)propyl)-2H-1,2,3-triazol-2-yl)propanoic acid] yielded an IC50 of 0.17 µM.
`O=C(O)CC(c1cnc2ccccc2c1)n1ncc(CCCc2ccc3c(n2)NCCC3)n1` (single isomer, unassigned) [Example 175, 3-(quinolin-3-yl)-3-(4-(3-(5,6,7,8-tetrahydro-1,8-naphthyridin-2-yl)propyl)-2H-1,2,3-triazol-2-yl)propanoic acid] gave an IC50 of 0.0043 µM.
`COc1ncc(C(CC(=O)O)n2ncc(CCCc3ccc4c(n3)NCCC4)n2)cn1` (single isomer, unassigned) [Example 176, 3-(2-methoxypyrimidin-5-yl)-3-(4-(3-(5,6,7,8-tetrahydro-1,8-naphthyridin-2-yl)propyl)-2H-1,2,3-triazol-2-yl)propanoic acid] was tested, and the IC50 was 0.043 µM.
`COc1ncc(C(CC(=O)O)n2ncc(CCCc3ccc4c(n3)NCCC4)n2)cn1` (single isomer, unassigned) [Example 177, 3-(2-methoxypyrimidin-5-yl)-3-(4-(3-(5,6,7,8-tetrahydro-1,8-naphthyridin-2-yl)propyl)-2H-1,2,3-triazol-2-yl)propanoic acid] was tested, and the IC50 was 0.315 µM.
With `COc1ccc(C(CC(=O)O)c2nc(CCCc3ccc4c(n3)NCCC4)co2)cc1F` (single isomer, unassigned) [Example 179, 3-(3-fluoro-4-methoxyphenyl)-3-(4-(3-(5,6,7,8-tetrahydro-1,8-naphthyridin-2-yl)propyl)oxazol-2-yl)propanoic acid] the IC50 was 0.066 µM.
`COc1ccc(C(CC(=O)O)c2nc(CCCCc3ccc4c(n3)NCCC4)c(C)o2)cc1F` (single isomer, unassigned) [Example 180, 3-(3-fluoro-4-methoxyphenyl)-3-(5-methyl-4-(4-(5,6,7,8-tetrahydro-1,8-naphthyridin-2-yl)butyl)oxazol-2-yl)propanoic acid] showed an IC50 of 0.25 µM.
`COc1ccc([C@H](CC(=O)O)c2cnn(CCCc3ccc4c(n3)NCCC4)c2)cn1` [Example 8, (A)-3-(6-Methoxypyridin-3-yl)-3-(1-(3-(5,6,7,8-tetrahydro-1,8-naphthyridin-2-yl)propyl)-1H-pyrazol-4-yl)propanoic acid] gave an IC50 of 0.064 µM.
With `COc1ccc([C@@H](CC(=O)O)c2cnn(CCCc3ccc4c(n3)NCCC4)c2)cn1` [Example 9, (R)-3-(6-Methoxypyridin-3-yl)-3-(1-(3-(5,6,7,8-tetrahydro-1,8-naphthyridin-2-yl)propyl)-1H-pyrazol-4-yl)propanoic acid] the IC50 was 0.213 µM.
For `O=C(O)C[C@@H](c1ccc(O)nc1)n1ccc(CCCc2ccc3c(n2)NCCC3)n1` [Example 12, (S)-3-(6-Hydroxypyridin-3-yl)-3-(3-(3-(5,6,7,8-tetrahydro-1,8-naphthyridin-2-yl)propyl)-1H-pyrazol-1-yl)propanoic acid], the IC50 was 0.031 µM.
For `COc1ccc(C(CC(=O)O)c2cnn(CCCCc3ccc4c(n3)NCCC4)c2)cc1F` (stereo not drawn) [Example 44, 3-(3-fluoro-4-methoxyphenyl)-3-(1-(4-(5,6,7,8-tetrahydro-1,8-naphthyridin-2-yl)butyl)-1H-pyrazol-4-yl)propanoic acid], the IC50 was 0.064 µM.
`O=C(O)C[C@@H](c1cnc2c(c1)OCCO2)n1ccc(CCCc2ccc3c(n2)NCCC3)n1` [Example 51, (S)-3-(2,3-Dihydro-[1,4]dioxino[2,3-b]pyridin-7-yl)-3-(3-(3-(5,6,7,8-tetrahydro-1,8-naphthyridin-2-yl)propyl)-1H-pyrazol-1-yl)propanoic acid] gave an IC50 of 0.0049 µM.
`O=C(O)C[C@H](c1cnc2c(c1)OCCO2)n1ccc(CCCc2ccc3c(n2)NCCC3)n1` [Example 52, (R)-3-(2,3-Dihydro-[1,4]dioxino[2,3-b]pyridin-7-yl)-3-(3-(3-(5,6,7,8-tetrahydro-1,8-naphthyridin-2-yl)propyl)-1H-pyrazol-1-yl)propanoic acid] showed an IC50 of 0.73 µM.
In the case of `Cc1ncc([C@@H](CC(=O)O)n2ccc(CCCc3ccc4c(n3)NCCC4)n2)cn1` [Example 55, (R)-3-(2-Methylpyrimidin-5-yl)-3-(3-(3-(5,6,7,8-tetrahydro-1,8-naphthyridin-2-yl)propyl)-1H-pyrazol-1-yl)propanoic acid], the IC50 is reported as 0.9 µM.
With `CCOc1ncc([C@H](CC(=O)O)n2ccc(CCCc3ccc4c(n3)NCCC4)n2)cn1` [Example 56, (S)-3-(2-Ethoxypyrimidin-5-yl)-3-(3-(3-(5,6,7,8-tetrahydro-1,8-naphthyridin-2-yl)propyl)-1H-pyrazol-1-yl)propanoic acid] the IC50 was 0.0071 µM.
Compound `CCOc1ncc([C@@H](CC(=O)O)n2ccc(CCCc3ccc4c(n3)NCCC4)n2)cn1` [Example 81, (R)-3-(2-ethoxypyrimidin-5-yl)-3-(3-(3-(5,6,7,8-tetrahydro-1,8-naphthyridin-2-yl)propyl)-1H-pyrazol-1-yl)propanoic acid] has an IC50 of 0.48 µM.
With `COc1ncc([C@H](CC(=O)O)n2ccc(CCCc3ccc4c(n3)NCCC4)n2)cn1` [Example 82, (S)-3-(2-methoxypyrimidin-5-yl)-3-(3-(3-(5,6,7,8-tetrahydro-1,8-naphthyridin-2-yl)propyl)-1H-pyrazol-1-yl)propanoic acid] the IC50 was 0.0085 µM.
Compound `COc1ncc([C@@H](CC(=O)O)n2ccc(CCCc3ccc4c(n3)NCCC4)n2)cn1` [Example 83, (R)-3-(2-methoxypyrimidin-5-yl)-3-(3-(3-(5,6,7,8-tetrahydro-1,8-naphthyridin-2-yl)propyl)-1H-pyrazol-1-yl)propanoic acid] has an IC50 of 0.31 µM.
With `O=C(O)CC(c1cncnc1)n1ccc(CCCc2ccc3c(n2)NCCC3)n1` (stereo not drawn) [Example 84, 3-(pyrimidin-5-yl)-3-(3-(3-(5,6,7,8-tetrahydro-1,8-naphthyridin-2-yl)propyl)-1H-pyrazol-1-yl)propanoic acid] the IC50 was 0.11 µM.
In the case of `O=C(O)C[C@@H](c1cnc(O)nc1)n1ccc(CCCc2ccc3c(n2)NCCC3)n1` [Example 85, (S)-3-(2-hydroxypyrimidin-5-yl)-3-(3-(3-(5,6,7,8-tetrahydro-1,8-naphthyridin-2-yl)propyl)-1H-pyrazol-1-yl)propanoic acid], the IC50 is reported as 0.052 µM.
`Cc1ncc([C@H](CC(=O)O)n2ccc(CCC[C@H]3CCc4cccnc4N3)n2)cn1` [Example 86, (S)-3-(2-methylpyrimidin-5-yl)-3-(3-(3-((S)-1,2,3,4-tetrahydro-1,8-naphthyridin-2-yl)propyl)-1H-pyrazol-1-yl)propanoic acid] gave an IC50 of 0.27 µM.
